Results on 20 molecules are retold here after patent US20250195530A1, “POLQ INHIBITORS” (ASTRAZENECA AB, priority 2022, published 2025).

Like-named read-outs stand apart in the source and are kept apart here.

One experiment concerns DLD-1 cells. Kind of experiment: Inhibition of proliferation, DLD-1 BRCA2 wt control (Cell Titre Glo 3D). It is filed as cell-based. The note with it: Homo sapiens. An outline of the steps:
(§1)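 Wild-type DLD-1 serves as the control for non-specific toxicity, and BRCA2-null DLD-1 as the homologous-recombination-deficient line. Both grew with compound from 10 μM down to 0.51 nM, re-dosed after 6 days. Luminescent ATP content (CellTiter-Glo 3D) was read after 7 or 12 days, respectively, to give IC50 values.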

A further experiment concerns DLD-1 BRCA2−/− cells. Kind of experiment: Homologous recombination synthetic lethal inhibition of proliferation, DLD-1 BRCA2-/- (Cell Titre Glo 3D). It is filed as cell-based. The note with it: Homo sapiens. The procedure, abridged: as §1
[1] abbreviates: DLD-1, 168 h, DLD-1 BRCA2 wt cells, 7 days, read-out: POLQ PD Prolif Lumin DLD1 mean pIC50 (converted).
Where [2] appears, read: DLD-1, 288 h, DLD-1 BRCA2−/− cells, 12 days, read-out: POLQ PD Prolif Lumin BRCA2 −/− mean pIC50 (converted).
Where [3] appears, read: DLD-1, DLD-1 BRCA2 wt control proliferation, column head only partly shown, read-out: POLQ PD Prolif Lumin (converted).
Where [4] appears, read: DLD-1, DLD-1 BRCA2-/- proliferation, column head only partly shown, read-out: POLQ PD Prolif Lumin (converted).
Where [5] appears, read: DLD-1, DLD1 BRCA2 wt, mean, read-out: POLQ PD Prolif Lumin DLD1 mean pIC50 (converted).
Where [6] appears, read: DLD-1, DLD-1 BRCA2 −/−, mean, read-out: POLQ PD Prolif Lumin BRCA2 −/− mean pIC50 (converted).
The mark [7] stands for this setting: DLD-1, second proliferation column (c6), taken as DLD-1 BRCA2 wt, read-out: POLQ PD Prolif Lumin (converted).
Setting [8] is: DLD-1, first proliferation column (c5), taken as DLD-1 BRCA2-/-, read-out: POLQ PD Prolif Lumin (converted).
Where [9] appears, read: DLD-1, DLD1 BRCA2 wt cells, mean, read-out: POLQ PD Prolif Lumin DLD1 mean PIC50 (converted).
The mark [10] stands for this setting: DLD-1, DLD-1 BRCA2 −/− cells, mean, read-out: POLQ PD Prolif Lumin BRCA2 −/− mean pIC50 (converted).
Setting [11] is: DLD-1, second proliferation column (c6), DLD-1 BRCA2 wt control, read-out: POLQ PD Prolif Lumin (converted).
Setting [12] is: DLD-1, first proliferation column (c5), DLD-1 BRCA2-/-, read-out: POLQ PD Prolif Lumin (converted).

For `CC1(Oc2ncnc3c2nc(-c2ccc(OCCN4CCNCC4)cc2Cl)n3Cc2cc(C#N)ccn2)CC1` [Example L4, 2-((8-(2-chloro-4-(2-(piperazin-1-yl)ethoxy)phenyl)-6-(1-methylcyclopropoxy)-9H-purin-9-yl)methyl)isonicotinonitrile], the IC50 with DLD-1 cells (setting [1]) was over 10 µM; with DLD-1 BRCA2−/− cells (setting [2]), 1 µM.
With `Cc1cnc(Cn2c(-c3ccc(OCCN4CCCC4)cc3Cl)nc3c(OC4(C)CC4)ncnc32)s1` [Example T239, 2-((8-(2-chloro-4-(2-(pyrrolidin-1-yl)ethoxy)phenyl)-6-(1-methylcyclopropoxy)-9H-purin-9-yl)methyl)-5-methylthiazole], the IC50 with DLD-1 cells (setting [3]) is over 10 µM; in the experiment with DLD-1 BRCA2−/− cells (setting [4]), 0.251 µM.
With `CC1(Oc2ncnc3c2nc(-c2ccc(OCCCN)cc2Cl)n3Cc2ccccc2)CC1` [Example D6, 3-(4-(9-benzyl-6-(1-methylcyclopropoxy)-9H-purin-8-yl)-3-chlorophenoxy)propan-1-amine], the IC50 in the experiment with DLD-1 cells (setting [1]) is 5.01 µM; in the experiment with DLD-1 BRCA2−/− cells (setting [2]), 0.631 µM.
Take `COc1ccc(F)cc1Cn1c(-c2cccc(OCCC(=O)O)c2Cl)nc2c(OC3(C)CC3)ncnc21` [Example U83, 3-(2-chloro-3-(9-(5-fluoro-2-methoxybenzyl)-6-(1-methylcyclopropoxy)-9H-purin-8-yl)phenoxy)propanoic acid]: the IC50 was over 10 µM in the experiment on DLD-1 cells (setting [5]) and 0.0501 µM in the experiment with DLD-1 BRCA2−/− cells (setting [6]).
As to `Cc1ccnc(Cn2c(-c3ccc(CC(=O)N(C)CCO)cc3Cl)nc3c(OC4(C)CC4)ncnc32)c1` [Example T369, 2-(3-chloro-4-(6-(1-methylcyclopropoxy)-9-((4-methylpyridin-2-yl)methyl)-9H-purin-8-yl)phenyl)-N-(2-hydroxyethyl)-N-methylacetamide], the IC50 in the experiment with DLD-1 cells (setting [7]) was over 10 µM; in the experiment on DLD-1 BRCA2−/− cells (setting [8]) it was 1 µM.
Consider `CC1(Oc2ncnc3c2nc(-c2cccc(OC4CCNCC4)c2Cl)n3Cc2ccccc2)CC1` [Example D11, 9-benzyl-8-(2-chloro-3-(piperidin-4-yloxy)phenyl)-6-(1-methylcyclopropoxy)-9H-purine], for which the IC50 in the experiment on DLD-1 cells (setting [1]) was 3.16 µM; in the experiment with DLD-1 BRCA2−/− cells (setting [2]) it was 0.251 µM.
As for `Cc1cnc(Cn2c(-c3ccc(OC4CC5(C4)CN(C)C5)cc3Cl)nc3c(OC4(C)CC4)ncnc32)s1` [Example T359, 2-((8-(2-chloro-4-((2-methyl-2-azaspiro[3.3]heptan-6-yl)oxy)phenyl)-6-(1-methylcyclopropoxy)-9H-purin-9-yl)methyl)-5-methylthiazole], the values for the IC50 in the experiment on DLD-1 cells (setting [7]) and in the experiment on DLD-1 BRCA2−/− cells (setting [8]) were over 10 µM and 0.501 µM, respectively.
On to `Cc1ccnc(Cn2c(-c3ccc(CCN(C)C)cc3Cl)nc3c(OC4(C)CC4)ncnc32)c1` [Example T236, 2-(3-chloro-4-(6-(1-methylcyclopropoxy)-9-((4-methylpyridin-2-yl)methyl)-9H-purin-8-yl)phenyl)-N,N-dimethylethan-1-amine], for which the IC50 with DLD-1 cells (setting [3]) was over 10 µM; in the experiment on DLD-1 BRCA2−/− cells (setting [4]), 0.251 µM.
For `CC1(Oc2ncnc3c2nc(-c2ccc(OCCN4CCNCC4)cc2Cl)n3Cc2nnco2)CC1` [Example T76, 2-((8-(2-chloro-4-(2-(piperazin-1-yl)ethoxy)phenyl)-6-(1-methylcyclopropoxy)-9H-purin-9-yl)methyl)-1,3,4-oxadiazole], the IC50 in the experiment with DLD-1 cells (setting [9]) is over 3.16 µM; in the experiment on DLD-1 BRCA2−/− cells (setting [10]) it was over 10 µM.
Take `Cc1cnc(Cn2c(-c3ccc(CC(N)=O)cc3Cl)nc3c(OC4(C)CC4)ncnc32)s1` [Example T4, 2-(3-chloro-4-(6-(1-methylcyclopropoxy)-9-((5-methylthiazol-2-yl)methyl)-9H-purin-8-yl)phenyl)acetamide]: the IC50 is over 10 µM in the experiment on DLD-1 cells (setting [9]) and 1.26 µM in the experiment with DLD-1 BRCA2−/− cells (setting [10]).
With `CC1(Oc2ncnc3c2nc(-c2cccc(OCCC(=O)O)c2Cl)n3Cc2cc(Cl)ccc2C#N)CC1` [Example U96, 3-(2-chloro-3-(9-(5-chloro-2-cyanobenzyl)-6-(1-methylcyclopropoxy)-9H-purin-8-yl)phenoxy)propanoic acid], the figures for the IC50 in the experiment on DLD-1 cells (setting [5]) and in the experiment on DLD-1 BRCA2−/− cells (setting [6]) were over 10 µM and 0.01 µM, respectively.
As for `Cc1ccnc(Cn2c(-c3ccc(N4CCS(=O)(=O)CC4)cc3Cl)nc3c(OC4(C)CC4)ncnc32)c1` [Example T225, 4-(3-chloro-4-(6-(1-methylcyclopropoxy)-9-((4-methylpyridin-2-yl)methyl)-9H-purin-8-yl)phenyl)thiomorpholine 1,1-dioxide], the IC50 with DLD-1 cells (setting [3]) was over 10 µM; in the experiment on DLD-1 BRCA2−/− cells (setting [4]) it was 0.631 µM.
Take `Cc1cc(OC[C@H]2CNCCO2)ncc1-c1nc2c(OC3(C)CC3)ncnc2n1Cc1ccccc1` [Example G15, (R)-2-(((5-(9-benzyl-6-(1-methylcyclopropoxy)-9H-purin-8-yl)-4-methylpyridin-2-yl)oxy)methyl)morpholine]: the IC50 in the experiment on DLD-1 cells (setting [1]) is over 10 µM; with DLD-1 BRCA2−/− cells (setting [2]), 0.398 µM.
Take `Cc1ccnc(Cn2c(-c3ccc(OC4CNC(=O)NC4)cc3Cl)nc3c(OC4(C)CC4)ncnc32)c1` [Example 42, 5-(3-Chloro-4-(6-(1-methylcyclopropoxy)-9-((4-methylpyridin-2-yl)methyl)-9H-purin-8-yl)phenoxy)tetrahydropyrimidin-2(1H)-one]: the IC50 in the experiment with DLD-1 cells (DLD-1, 168 h, DLD-1 (BRCA2 wt control), 7 days, Cell Titre Glo 3D, read-out: POLQ PD Prolif Lumin DLD1 Mean pIC50 (converted)) was over 10 µM; in the experiment with DLD-1 BRCA2−/− cells (DLD-1, 288 h, DLD-1 BRCA2−/−, 12 days, Cell Titre Glo 3D, read-out: POLQ PD Prolif Lumin BRCA2 −/− Mean pIC50 (converted)) it was 6.31 µM.
In the case of `C[C@@H]1CNCCN1CCOc1ccc(-c2nc3c(OC4(C)CC4)ncnc3n2Cc2ccccc2)c(Cl)c1` [Example R11, (R)-9-benzyl-8-(2-chloro-4-(2-(2-methylpiperazin-1-yl)ethoxy)phenyl)-6-(1-methylcyclopropoxy)-9H-purine], the IC50 was 2.51 µM with DLD-1 cells (setting [1]) and 0.1 µM in the experiment with DLD-1 BRCA2−/− cells (setting [2]).
As to `C[C@@H](CCOc1cccc(-c2nc3c(OC4(C)CC4)ncnc3n2Cc2cc(Cl)ccc2F)c1Cl)C(=O)O` [Example U24, (S)-4-(2-chloro-3-(9-(5-chloro-2-fluorobenzyl)-6-(1-methylcyclopropoxy)-9H-purin-8-yl)phenoxy)-2-methylbutanoic acid], the results for the IC50 in the experiment with DLD-1 cells (setting [5]) and with DLD-1 BRCA2−/− cells (setting [6]) were over 10 µM and 0.0126 µM, respectively.
For the molecule `CC1(Oc2ncnc3c2nc(-c2ccc(OCCC4(C(=O)O)CC4)cc2Cl)n3Cc2cccc(Cl)c2)CC1` [Example T407, 1-(2-(3-chloro-4-(9-(3-chlorobenzyl)-6-(1-methylcyclopropoxy)-9H-purin-8-yl)phenoxy)ethyl)cyclopropane-1-carboxylic acid], the IC50 in the experiment on DLD-1 cells (DLD-1, proliferation, luminescence, second Prolif column (c6), taken as DLD-1 BRCA2 wt control, read-out: POLQ PD Prolif Lumin (converted)) was over 10 µM; in the experiment with DLD-1 BRCA2−/− cells (DLD-1, proliferation, luminescence, taken as DLD-1 BRCA2-/-, read-out: POLQ PD Prolif Lumin (converted)), 0.316 µM.
As to `CN(C)CCOc1ccc(-c2nc3c(OC4(C)CC4)ncnc3n2Cc2cc(Cl)ccn2)c(Cl)c1` [Example T135, 2-(3-chloro-4-(9-((4-chloropyridin-2-yl)methyl)-6-(1-methylcyclopropoxy)-9H-purin-8-yl)phenoxy)-N,N-dimethylethan-1-amine], the IC50 in the experiment with DLD-1 cells (setting [11]) is over 10 µM; with DLD-1 BRCA2−/− cells (setting [12]), 0.0501 µM.
Consider `Cc1cncc(Cn2c(-c3ccc(OCCN4CCNCC4)cc3Cl)nc3c(OC4(C)CC4)ncnc32)c1` [Example T530, 8-(2-chloro-4-(2-(piperazin-1-yl)ethoxy)phenyl)-6-(1-methylcyclopropoxy)-9-((5-methylpyridin-3-yl)methyl)-9H-purine], for which the values for the IC50 in the experiment with DLD-1 cells (setting [11]) and with DLD-1 BRCA2−/− cells (setting [12]) were over 10 µM and 1 µM, respectively.
Take `CC1(Oc2ncnc3c2nc(-c2ccc(OCCN4CCNCC4)cc2Cl)n3Cc2ccc(Cl)cn2)CC1` [Example K3, 8-(2-chloro-4-(2-(piperazin-1-yl)ethoxy)phenyl)-9-((5-chloropyridin-2-yl)methyl)-6-(1-methylcyclopropoxy)-9H-purine]: the IC50 in the experiment on DLD-1 cells (setting [1]) is over 10 µM; with DLD-1 BRCA2−/− cells (setting [2]) it was 1.26 µM.
